Data taken from patent US6525001B1, “Substituted pyrimidine and pyridine herbicides” (Mid-American Commercialization Corporation, priority 1997, dated 2003).

Experiments:
Assay in all cases: Test B pre-/postemergence
Type in all cases: in vivo
Set-up in all cases: key: 0 is no effect; 10 is complete control
[1] = tested on: velvetleaf (Abutilon theophrasti)
Method in brief: (§1)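 Compounds in a surfactant-containing, non-phytotoxic solvent blend are applied to freshly planted seed (preemergence) and, concurrently, to seedlings of 2 to 18 cm at 1–4 leaves (postemergence). Plants stay in the greenhouse twelve to sixteen days and are then scored visually from 0 (no effect) to 10 (complete control).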

[2] = tested on: pigweed (Amaranthus retroflexus)
Method in brief: as §1

[3] = tested on: wheat (Triticum aestivum)
Method in brief: as §1

[4] = tested on: giant foxtail (Setaria faberii)
Method in brief: as §1

[5] = tested on: cocklebur (Xanthium strumarium)
Method in brief: as §1

[6] = tested on: crabgrass (Digitaria sanguinalis)
Method in brief: as §1

[7] = tested on: bedstraw (Galium aparine)
Method in brief: as §1

[8] = tested on: momingglory (Ipomoea hederacea)
Method in brief: as §1

[9] = tested on: broadleaf signalgrass (Brachiaria decumbens)
Method in brief: as §1

corn (Zea mays) = tested on: corn (Zea mays)
Method in brief: as §1

rape (Brassica napus) = tested on: rape (Brassica napus)
Method in brief: as §1

[10] = tested on: sugar beet (Beta vulgaris)
Method in brief: as §1

soybean (Glycine max) = tested on: soybean (Glycine max)
Method in brief: as §1

[11] = tested on: blackgrass (Alopecurus myosuroides)
Method in brief: as §1

## Cc1cnc(-c2ccc(C(F)(F)F)cc2)nc1Cn1ccc(C(F)(F)C(F)(F)F)n1 [Compound 14]
[1]; Rate 62 g/ha, Postemergence
  Plant response rating, Velvetleaf: 3
[1]; Rate 62 g/ha, Preemergence
  Velvetleaf plant response rating: 0
[1]; Rate 125 g/ha, Postemergence
  Plant response rating, Velvetleaf: 4
[1]; Rate 125 g/ha, Preemergence
  Velvetleaf plant response rating: 0
[1]; Rate 250 g/ha, Postemergence
  Plant response rating, Velvetleaf: 4
[1]; Rate 250 g/ha, Preemergence
  Plant response rating, Velvetleaf: 1
[1]; Rate 500 g/ha, Postemergence
  Plant response rating, Velvetleaf: 4
[1]; Rate 500 g/ha, Preemergence
  Plant response rating, Velvetleaf: 7
[2]; Rate 62 g/ha, Postemergence
  Plant response rating, Redroot pigweed: 8
[2]; Rate 62 g/ha, Preemergence
  Redroot pigweed plant response rating: 0
[2]; Rate 125 g/ha, Postemergence
  Plant response rating, Redroot pigweed: 9
[2]; Rate 125 g/ha, Preemergence
  Redroot pigweed plant response rating: 2
[2]; Rate 250 g/ha, Postemergence
  Plant response rating, Redroot pigweed: 9
[2]; Rate 250 g/ha, Preemergence
  Plant response rating, Redroot pigweed: 4
[2]; Rate 500 g/ha, Postemergence
  Plant response rating, Redroot pigweed: 9
[2]; Rate 500 g/ha, Preemergence
  Plant response rating, Redroot pigweed: 4
[3]; Rate 62 g/ha, Postemergence
  Plant response rating, Wheat: 0
[3]; Rate 62 g/ha, Preemergence
  Wheat plant response rating: 0
[3]; Rate 125 g/ha, Postemergence
  Plant response rating, Wheat: 0
[3]; Rate 125 g/ha, Preemergence
  Wheat plant response rating: 0
[3]; Rate 250 g/ha, Postemergence
  Plant response rating, Wheat: 2
[3]; Rate 250 g/ha, Preemergence
  Plant response rating, Wheat: 0
[3]; Rate 500 g/ha, Postemergence
  Plant response rating, Wheat: 3
[3]; Rate 500 g/ha, Preemergence
  Plant response rating, Wheat: 0
[4]; Rate 62 g/ha, Postemergence
  Plant response rating, Giant foxtail: 1
[4]; Rate 62 g/ha, Preemergence
  Giant foxtail plant response rating: 0
[4]; Rate 125 g/ha, Postemergence
  Plant response rating, Giant foxtail: 1
[4]; Rate 125 g/ha, Preemergence
  Giant foxtail plant response rating: 4
[4]; Rate 250 g/ha, Postemergence
  Plant response rating, Giant foxtail: 1
[4]; Rate 250 g/ha, Preemergence
  Plant response rating, Giant foxtail: 7
[4]; Rate 500 g/ha, Postemergence
  Plant response rating, Giant foxtail: 3
[4]; Rate 500 g/ha, Preemergence
  Plant response rating, Giant foxtail: 9
[5]; Rate 62 g/ha, Postemergence
  Plant response rating, Cocklebur: 4
[5]; Rate 62 g/ha, Preemergence
  Cocklebur plant response rating: 0
[5]; Rate 125 g/ha, Postemergence
  Plant response rating, Cocklebur: 7
[5]; Rate 250 g/ha, Postemergence
  Plant response rating, Cocklebur: 7
[5]; Rate 250 g/ha, Preemergence
  Plant response rating, Cocklebur: 0
[5]; Rate 500 g/ha, Postemergence
  Plant response rating, Cocklebur: 7
[6]; Rate 62 g/ha, Postemergence
  Plant response rating, Crabgrass: 2
[6]; Rate 62 g/ha, Preemergence
  Crabgrass plant response rating: 0
[6]; Rate 125 g/ha, Postemergence
  Plant response rating, Crabgrass: 2
[6]; Rate 125 g/ha, Preemergence
  Crabgrass plant response rating: 1
[6]; Rate 250 g/ha, Postemergence
  Plant response rating, Crabgrass: 2
[6]; Rate 250 g/ha, Preemergence
  Plant response rating, Crabgrass: 7
[6]; Rate 500 g/ha, Postemergence
  Plant response rating, Crabgrass: 4
[6]; Rate 500 g/ha, Preemergence
  Plant response rating, Crabgrass: 8
[7]; Rate 62 g/ha, Postemergence
  Plant response rating, Bedstraw: 4
[7]; Rate 62 g/ha, Preemergence
  Bedstraw plant response rating: 0
[7]; Rate 125 g/ha, Postemergence
  Plant response rating, Bedstraw: 4
[7]; Rate 125 g/ha, Preemergence
  Bedstraw plant response rating: 0
[7]; Rate 250 g/ha, Postemergence
  Plant response rating, Bedstraw: 8
[7]; Rate 250 g/ha, Preemergence
  Plant response rating, Bedstraw: 0
[7]; Rate 500 g/ha, Postemergence
  Plant response rating, Bedstraw: 10
[7]; Rate 500 g/ha, Preemergence
  Plant response rating, Bedstraw: 2
[8]; Rate 62 g/ha, Postemergence
  Plant response rating, Morningglory: 2
[8]; Rate 62 g/ha, Preemergence
  Morningglory plant response rating: 0
[8]; Rate 125 g/ha, Postemergence
  Plant response rating, Morningglory: 6
[8]; Rate 125 g/ha, Preemergence
  Morningglory plant response rating: 0
[8]; Rate 250 g/ha, Postemergence
  Plant response rating, Morningglory: 6
[8]; Rate 250 g/ha, Preemergence
  Plant response rating, Morningglory: 2
[8]; Rate 500 g/ha, Postemergence
  Plant response rating, Morningglory: 8
[8]; Rate 500 g/ha, Preemergence
  Plant response rating, Morningglory: 8
[9]; Rate 62 g/ha, Postemergence
  Plant response rating, B. signalgrass: 2
[9]; Rate 62 g/ha, Preemergence
  B. signalgrass plant response rating: 0
[9]; Rate 125 g/ha, Postemergence
  Plant response rating, B. signalgrass: 2
[9]; Rate 125 g/ha, Preemergence
  B. signalgrass plant response rating: 0
[9]; Rate 250 g/ha, Postemergence
  Plant response rating, B. signalgrass: 3
[9]; Rate 250 g/ha, Preemergence
  Plant response rating, B. signalgrass: 0
[9]; Rate 500 g/ha, Postemergence
  Plant response rating, B. signalgrass: 4
[9]; Rate 500 g/ha, Preemergence
  Plant response rating, B. signalgrass: 5
Corn (Zea mays); Rate 62 g/ha, Postemergence
  Plant response rating, Corn: 2
Corn (Zea mays); Rate 62 g/ha, Preemergence
  Corn plant response rating: 0
Corn (Zea mays); Rate 125 g/ha, Postemergence
  Plant response rating, Corn: 2
Corn (Zea mays); Rate 125 g/ha, Preemergence
  Corn plant response rating: 0
Corn (Zea mays); Rate 250 g/ha, Postemergence
  Plant response rating, Corn: 3
Corn (Zea mays); Rate 250 g/ha, Preemergence
  Plant response rating, Corn: 0
Corn (Zea mays); Rate 500 g/ha, Postemergence
  Plant response rating, Corn: 3
Corn (Zea mays); Rate 500 g/ha, Preemergence
  Plant response rating, Corn: 3
Rape (Brassica napus); Rate 62 g/ha, Postemergence
  Plant response rating, Rape: 5
Rape (Brassica napus); Rate 62 g/ha, Preemergence
  Rape plant response rating: 0
Rape (Brassica napus); Rate 125 g/ha, Postemergence
  Plant response rating, Rape: 6
Rape (Brassica napus); Rate 125 g/ha, Preemergence
  Rape plant response rating: 1
Rape (Brassica napus); Rate 250 g/ha, Postemergence
  Plant response rating, Rape: 6
Rape (Brassica napus); Rate 250 g/ha, Preemergence
  Plant response rating, Rape: 2
Rape (Brassica napus); Rate 500 g/ha, Postemergence
  Plant response rating, Rape: 7
Rape (Brassica napus); Rate 500 g/ha, Preemergence
  Plant response rating, Rape: 8
[10]; Rate 62 g/ha, Postemergence
  Plant response rating, Sugarbeets: 7
[10]; Rate 62 g/ha, Preemergence
  Sugarbeets plant response rating: 3
[10]; Rate 125 g/ha, Postemergence
  Plant response rating, Sugarbeets: 8
[10]; Rate 125 g/ha, Preemergence
  Sugarbeets plant response rating: 5
[10]; Rate 250 g/ha, Postemergence
  Plant response rating, Sugarbeets: 8
[10]; Rate 250 g/ha, Preemergence
  Plant response rating, Sugarbeets: 6
[10]; Rate 500 g/ha, Postemergence
  Plant response rating, Sugarbeets: 9
[10]; Rate 500 g/ha, Preemergence
  Plant response rating, Sugarbeets: 9
Soybean (Glycine max); Rate 62 g/ha, Postemergence
  Plant response rating, Soybean: 4
Soybean (Glycine max); Rate 62 g/ha, Preemergence
  Soybean plant response rating: 0
Soybean (Glycine max); Rate 125 g/ha, Postemergence
  Plant response rating, Soybean: 4
Soybean (Glycine max); Rate 125 g/ha, Preemergence
  Soybean plant response rating: 0
Soybean (Glycine max); Rate 250 g/ha, Postemergence
  Plant response rating, Soybean: 5
Soybean (Glycine max); Rate 250 g/ha, Preemergence
  Plant response rating, Soybean: 0
Soybean (Glycine max); Rate 500 g/ha, Postemergence
  Plant response rating, Soybean: 5
Soybean (Glycine max); Rate 500 g/ha, Preemergence
  Plant response rating, Soybean: 1
[11]; Rate 62 g/ha, Postemergence
  Plant response rating, Blackgrass: 1
[11]; Rate 62 g/ha, Preemergence
  Blackgrass plant response rating: 0
[11]; Rate 125 g/ha, Postemergence
  Plant response rating, Blackgrass: 2
[11]; Rate 125 g/ha, Preemergence
  Blackgrass plant response rating: 0
[11]; Rate 250 g/ha, Postemergence
  Plant response rating, Blackgrass: 3
[11]; Rate 250 g/ha, Preemergence
  Plant response rating, Blackgrass: 0
[11]; Rate 500 g/ha, Postemergence
  Plant response rating, Blackgrass: 3
[11]; Rate 500 g/ha, Preemergence
  Plant response rating, Blackgrass: 3
